Activity calls are given as the source filed them.
What was measured:
[1] = target: T1, Polyadenylate-binding protein 1 (Homo sapiens, UniProt P11940); assay: MLLE binding blockers, Cy5 peptide tracer – biochemical, fluorescence polarization, Cy5-PAM2 peptide, secondary, miRNA deadenylation inhibitor project, dose response (AID 602260); assay type: functional; details: read-out: IC50_Mean
[2] = target: T1, Polyadenylate-binding protein 1; assay: MLLE domain peptide-binding blockers, IC50 – biochemical, fluorescence polarization, FITC-PAM2 peptide, dose response (AID 602259); assay type: functional; details: read-out: IC50_Mean
[3] = test system: Streptococcus sp. 'group A'; assay: Streptococcus pyogenes SK(-)GAS viability under kanamycin – luminescence, BacTiterGlo, confirmation, counter-screen for streptokinase expression inhibitor project, dose response (AID 1900); assay type: functional, organism-based
Streptokinase A = target: T2, Streptokinase A (Streptococcus pyogenes serotype M1, UniProt P10520); assay: viability-normalized secreted streptokinase activity reduction – plasminogen activation absorbance, OD405, dose response (AID 1914); assay type: functional, Streptococcus pyogenes M1 GAS;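 note: secreted streptokinase activity via plasminogen activation per viability signal from cell pellet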
T2 sequence (P10520 whole entry): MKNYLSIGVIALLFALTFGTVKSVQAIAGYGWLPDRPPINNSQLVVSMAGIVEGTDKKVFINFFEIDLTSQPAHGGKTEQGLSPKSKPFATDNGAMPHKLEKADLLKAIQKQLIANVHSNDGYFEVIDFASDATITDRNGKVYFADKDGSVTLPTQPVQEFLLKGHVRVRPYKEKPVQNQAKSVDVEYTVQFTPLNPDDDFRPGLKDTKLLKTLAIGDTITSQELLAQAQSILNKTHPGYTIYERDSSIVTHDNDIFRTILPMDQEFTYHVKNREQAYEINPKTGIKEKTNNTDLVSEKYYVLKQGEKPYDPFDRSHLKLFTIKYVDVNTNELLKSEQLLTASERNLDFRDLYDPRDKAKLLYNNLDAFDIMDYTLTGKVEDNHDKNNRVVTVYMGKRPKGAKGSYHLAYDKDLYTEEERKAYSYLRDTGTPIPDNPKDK

[4] = microbe, parasite or virus in culture; assay type: functional; details: Mycobacterium tuberculosis
Streptococcus = assay: GAS UMAA2166 growth inhibition – luminescence, BacTiterGlo, counter-screen for streptokinase expression inhibitor project, dose response (AID 1915); assay type: functional, organism-based;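 note: potency for reduction of bacterial viability or growth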
[5] = target: T3, Replicative DNA helicase DnaB (Mycobacterium tuberculosis, UniProt P9WMR3); assay: DnaB intein splicing inhibitors, dose response, biochemical, cell-free fluorescence (AID 449749); assay type: functional
T3 sequence (P9WMR3 whole entry): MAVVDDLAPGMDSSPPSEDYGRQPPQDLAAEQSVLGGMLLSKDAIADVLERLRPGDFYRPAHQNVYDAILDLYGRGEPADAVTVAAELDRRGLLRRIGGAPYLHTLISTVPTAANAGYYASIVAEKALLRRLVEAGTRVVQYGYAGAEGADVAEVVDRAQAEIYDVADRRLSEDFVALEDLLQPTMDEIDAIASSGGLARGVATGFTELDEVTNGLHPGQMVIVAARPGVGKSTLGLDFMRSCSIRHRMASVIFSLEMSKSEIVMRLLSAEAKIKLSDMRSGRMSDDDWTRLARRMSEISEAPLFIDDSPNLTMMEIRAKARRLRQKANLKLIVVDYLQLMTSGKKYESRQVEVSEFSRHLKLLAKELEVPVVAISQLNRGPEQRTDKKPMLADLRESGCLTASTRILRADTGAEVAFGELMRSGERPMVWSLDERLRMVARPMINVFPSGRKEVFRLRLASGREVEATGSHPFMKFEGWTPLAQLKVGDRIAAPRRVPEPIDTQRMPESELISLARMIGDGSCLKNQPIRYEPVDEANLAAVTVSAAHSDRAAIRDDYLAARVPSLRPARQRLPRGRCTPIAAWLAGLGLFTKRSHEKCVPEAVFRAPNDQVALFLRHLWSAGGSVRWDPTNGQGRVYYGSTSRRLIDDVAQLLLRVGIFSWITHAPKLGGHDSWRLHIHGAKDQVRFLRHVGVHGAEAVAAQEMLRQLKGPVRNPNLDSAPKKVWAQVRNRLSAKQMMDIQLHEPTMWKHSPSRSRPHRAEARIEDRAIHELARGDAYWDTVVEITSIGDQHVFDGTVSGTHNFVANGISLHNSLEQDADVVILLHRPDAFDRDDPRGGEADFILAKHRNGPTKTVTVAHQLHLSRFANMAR

Protein RecA = target: T4, Protein RecA (Mycobacterium tuberculosis, UniProt P9WHJ3); assay: Fluorescence Cell-Free Homogeneous Dose Retest to Identify Inhibitors of RecA-Intein Splicing Activity. [Related pubchem assays (depositor defined):AID2097, AID2223, AID489010, AID492950]; assay type: functional
T4 sequence (P9WHJ3 whole entry): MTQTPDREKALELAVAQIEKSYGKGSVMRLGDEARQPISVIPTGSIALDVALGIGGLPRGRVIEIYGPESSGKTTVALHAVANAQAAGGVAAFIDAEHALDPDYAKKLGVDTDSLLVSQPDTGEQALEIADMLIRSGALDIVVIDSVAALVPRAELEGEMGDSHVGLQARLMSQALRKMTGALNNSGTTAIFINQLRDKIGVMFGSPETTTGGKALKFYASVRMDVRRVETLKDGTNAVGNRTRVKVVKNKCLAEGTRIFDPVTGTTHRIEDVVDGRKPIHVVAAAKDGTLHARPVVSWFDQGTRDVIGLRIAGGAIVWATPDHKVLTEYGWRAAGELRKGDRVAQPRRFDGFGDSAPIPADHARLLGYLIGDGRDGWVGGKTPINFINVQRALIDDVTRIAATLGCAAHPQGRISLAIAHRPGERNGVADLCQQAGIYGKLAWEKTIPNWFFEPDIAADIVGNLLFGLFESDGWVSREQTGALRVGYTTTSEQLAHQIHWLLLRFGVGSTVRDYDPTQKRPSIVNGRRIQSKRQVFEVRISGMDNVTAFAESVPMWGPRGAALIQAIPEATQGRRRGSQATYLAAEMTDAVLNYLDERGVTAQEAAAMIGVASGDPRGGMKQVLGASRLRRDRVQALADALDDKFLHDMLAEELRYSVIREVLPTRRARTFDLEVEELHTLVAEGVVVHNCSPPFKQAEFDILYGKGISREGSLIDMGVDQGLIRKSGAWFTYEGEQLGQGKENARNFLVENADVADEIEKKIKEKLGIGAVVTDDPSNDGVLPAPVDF

cells = assay type: functional
H9c2 = assay: cells; assay type: functional, cell-based; details: Rattus norvegicus, H9c2, Myocardium;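 note: confirmatory concentration-response retest of ultra-high-throughput screening hits for modulation of myocardial damage; cell death induced by hydrogen peroxide oxidative stress; compound pretreatment for 60 min then peroxide exposure for 2 h; potency is for protecting the cells against peroxide damage rather than for killing them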
[6] = target: T5, RNA-binding protein pos-1 (Caenorhabditis elegans, UniProt G5EF15); assay: disruptors of C. elegans POS-1 RNA interaction – biochemical, fluorescence polarization, dose response (AID 1964);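 note: purified POS-1 fused to maltose binding protein made in E. coli; potency of compounds blocking POS-1 binding to fluorescent RNA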
T5 sequence (G5EF15 whole entry): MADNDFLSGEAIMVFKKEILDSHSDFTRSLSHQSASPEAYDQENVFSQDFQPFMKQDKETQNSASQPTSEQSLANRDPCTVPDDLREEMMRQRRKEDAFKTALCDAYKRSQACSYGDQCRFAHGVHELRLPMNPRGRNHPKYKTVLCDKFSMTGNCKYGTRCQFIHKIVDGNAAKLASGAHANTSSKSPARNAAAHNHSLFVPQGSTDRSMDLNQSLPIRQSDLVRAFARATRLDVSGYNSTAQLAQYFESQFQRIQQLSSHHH

[7] = target: T6, Zinc finger protein mex-5 (Caenorhabditis elegans, UniProt Q9XUB2); assay: potency of MEX-5 RNA-binding blockers – biochemical, C. elegans, fluorescence polarization, dose response (AID 1960)
T6 sequence (Q9XUB2 whole entry): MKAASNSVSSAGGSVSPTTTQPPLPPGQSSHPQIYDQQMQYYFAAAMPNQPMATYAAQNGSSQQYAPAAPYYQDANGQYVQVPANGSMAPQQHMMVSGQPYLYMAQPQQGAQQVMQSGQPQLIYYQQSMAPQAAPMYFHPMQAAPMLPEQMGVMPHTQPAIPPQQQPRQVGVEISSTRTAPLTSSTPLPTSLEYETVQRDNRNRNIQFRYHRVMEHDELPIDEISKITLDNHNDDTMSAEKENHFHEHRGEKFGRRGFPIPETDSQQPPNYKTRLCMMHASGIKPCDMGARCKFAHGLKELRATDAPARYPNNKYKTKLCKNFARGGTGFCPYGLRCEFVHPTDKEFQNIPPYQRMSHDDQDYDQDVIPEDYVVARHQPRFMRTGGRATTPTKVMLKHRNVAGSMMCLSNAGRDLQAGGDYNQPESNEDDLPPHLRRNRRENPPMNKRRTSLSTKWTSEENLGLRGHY

[8] = Luminescence Cell-Based Dose Retest to Confirm Inhibitors of Cancer Stem Cells. [Related pubchem assays (depositor defined):AID2717, AID2721]; assay type: functional; details: Homo sapiens
[9] = target: T7, Corticotropin-releasing factor receptor 2/Corticotropin-releasing factor-binding protein (Homo sapiens, UniProt P24387+Q13324); assay: Dose Response confirmation of uHTS hits for small molecule antagonists of the CRF-binding protein and CRF-R2 receptor complex.; assay type: functional; details: read-out: IC50_Mean
T7 sequence (Q13324 whole entry): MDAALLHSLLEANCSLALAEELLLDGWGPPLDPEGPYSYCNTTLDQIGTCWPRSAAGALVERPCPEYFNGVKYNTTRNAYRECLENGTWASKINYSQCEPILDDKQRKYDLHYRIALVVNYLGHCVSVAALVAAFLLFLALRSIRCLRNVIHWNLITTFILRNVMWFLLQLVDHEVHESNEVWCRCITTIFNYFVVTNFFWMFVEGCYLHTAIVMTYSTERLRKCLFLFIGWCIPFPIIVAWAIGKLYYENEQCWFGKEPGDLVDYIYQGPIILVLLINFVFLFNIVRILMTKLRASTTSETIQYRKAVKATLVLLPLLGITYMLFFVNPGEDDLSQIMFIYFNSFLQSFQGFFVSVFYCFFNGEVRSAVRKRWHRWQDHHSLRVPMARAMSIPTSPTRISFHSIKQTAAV
T7 sequence (P24387 whole entry): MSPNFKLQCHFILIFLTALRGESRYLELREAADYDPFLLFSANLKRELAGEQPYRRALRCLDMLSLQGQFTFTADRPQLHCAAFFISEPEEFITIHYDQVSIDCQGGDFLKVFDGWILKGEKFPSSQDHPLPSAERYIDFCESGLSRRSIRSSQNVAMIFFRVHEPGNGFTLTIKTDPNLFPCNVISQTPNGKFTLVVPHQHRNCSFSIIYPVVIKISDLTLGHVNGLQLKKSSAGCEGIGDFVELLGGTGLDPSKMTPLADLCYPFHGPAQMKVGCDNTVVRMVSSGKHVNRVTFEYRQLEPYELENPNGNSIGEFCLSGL

[10] = target: T7, Corticotropin-releasing factor receptor 2/Corticotropin-releasing factor-binding protein; assay: activators of CRF receptor 2 with binding protein – uHTS hits, confirmation (AID 602473); assay type: functional; details: read-out: EC50_Mean

T1 sequence (P11940 whole entry, the tested form may be a part): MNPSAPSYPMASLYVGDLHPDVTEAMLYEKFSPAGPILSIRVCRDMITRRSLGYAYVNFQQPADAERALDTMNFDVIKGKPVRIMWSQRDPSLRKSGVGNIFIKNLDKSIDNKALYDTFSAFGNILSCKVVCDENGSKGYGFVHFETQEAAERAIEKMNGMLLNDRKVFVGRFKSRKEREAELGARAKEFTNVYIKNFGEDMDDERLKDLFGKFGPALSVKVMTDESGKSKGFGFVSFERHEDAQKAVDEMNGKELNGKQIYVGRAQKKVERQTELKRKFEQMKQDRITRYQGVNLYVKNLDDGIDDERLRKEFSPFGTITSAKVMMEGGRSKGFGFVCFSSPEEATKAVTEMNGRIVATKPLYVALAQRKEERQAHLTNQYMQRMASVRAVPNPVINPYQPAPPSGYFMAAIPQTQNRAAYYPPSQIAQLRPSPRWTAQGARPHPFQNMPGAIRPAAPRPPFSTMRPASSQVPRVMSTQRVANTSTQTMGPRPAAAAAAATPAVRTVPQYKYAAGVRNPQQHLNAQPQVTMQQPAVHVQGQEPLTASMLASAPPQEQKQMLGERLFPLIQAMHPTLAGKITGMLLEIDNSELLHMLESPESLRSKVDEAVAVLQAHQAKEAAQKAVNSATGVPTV

Structure (SMILES): O=C(NC(=S)N1CCCCCC1)c1ccccc1Cl
- IC50 [1]: > 66 µM (inactive)
- IC50 [2]: > 66 µM (inactive)

Structure (SMILES): COc1ccc(-c2oc(NC(=O)CCl)c(C#N)c2-c2ccc(OC)cc2)cc1
- EC50 [3]: 1.18 µM (active)
- EC50 (Streptokinase A): 1.16 µM (active)
- CC50 [4]: 10.1 µM (active)
- EC50 (Streptococcus): > 150 µM (not active)
- AC50 [5]: 0.416 µM (active)
- EC50 (Protein RecA): 0.67 µM (active)

Structure (SMILES): COc1ccc(C(=O)COC(=O)c2ccc([N+](=O)[O-])s2)cc1OC
- IC50 (cells): 10.6 µM (active)
- IC50 (H9c2): > 79 µM (inactive)

Structure (SMILES): COC(=O)c1ccc(C(C(=O)NCc2ccccc2)N(Cc2cccs2)C(=O)c2cnccn2)cc1 (configuration not stated)
- IC50 (H9c2): 8.82 µM (active)

Structure (SMILES): CCC(CC)C(=O)Nc1cc(C)c2c(=O)oc3ccccc3c2n1
- IC50 (H9c2): > 79 µM (inactive)

Structure (SMILES): CCc1ccc(N2C(=O)NC(=O)/C(=C\c3cc(C)n(-c4cc(C(=O)O)cc(C(=O)O)c4)c3C)C2=O)cc1
- EC50 [6]: > 300 µM (not active)
- EC50 [7]: > 300 µM (not active)

Structure (SMILES): CCC(ONc1ccccc1C(F)(F)F)(C(=O)NN(C)C)c1ccccc1 (configuration not stated)
- IC50 (H9c2): 33.3 µM (inactive)

Structure (SMILES): CCOC(=O)C1CCN(c2cc3c(cc2NC(=O)c2ccccc2Cl)n(C)c(=O)n3C)CC1
- IC50 (H9c2): > 79 µM (inactive)

Structure (SMILES): COc1ccc(C2=NN(C(=O)COC(=O)c3ccc(S(C)(=O)=O)c([N+](=O)[O-])c3)C(c3ccco3)C2)cc1 (configuration not stated)
- CC50 [4]: 9.73 µM (active)
- AC50 [8]: 1.52 µM (active)

Structure (SMILES): CC(=O)c1ccc(NC(=O)COC(=O)c2c3c(nc4ccccc24)/C(=C\c2cccs2)CCC3)cc1
- CC50 [4]: 12.4 µM (active)
- AC50 [8]: 3.85 µM (active)

Structure (SMILES): CC1CCN(C(=O)CSc2nncn2-c2ccccn2)CC1
- IC50 [1]: > 66 µM (inactive)
- IC50 [2]: > 66 µM (inactive)

Structure (SMILES): CC(C)C1Nc2ccc(S(N)(=O)=O)cc2C2C=CCC21 (configuration not stated)
- EC50 [6]: 52.4 µM (active)
- EC50 [7]: 30.4 µM (active)

Structure (SMILES): COc1ccc(OCC(O)Cn2c(Br)nc3c2c(=O)[nH]c(=O)n3C)cc1 (configuration not stated)
- IC50 (H9c2): 16.4 µM (active)

Structure (SMILES): Cc1cc2cc(CNC(=O)Cc3cccs3)ccc2n1C
- IC50 [1]: > 66 µM (inactive)
- IC50 [2]: > 66 µM (inactive)

Structure (SMILES): CC(C)OCCCNC(=O)CCC(=O)NNc1nc2ccccc2c2nc(-c3ccccc3)nn12
- IC50 (H9c2): 13.5 µM (active)

Structure (SMILES): O=C(COc1ccc(Cl)cc1)NCc1nnc(O)c2ccccc12
- IC50 (H9c2): > 79 µM (inactive)

Structure (SMILES): CN(C)/C=C/C(=O)c1cnc(-c2ccccc2Cl)s1
- EC50 [6]: > 300 µM (not active)
- EC50 [7]: > 300 µM (not active)

Structure (SMILES): Cc1ccccc1NC(=O)CSC(=O)c1ccccc1
- IC50 [1]: > 66 µM (inactive)
- IC50 [2]: > 66 µM (inactive)

Structure (SMILES): N#CC1=C(N)OC2=C(C(=O)CC(c3ccccc3)C2)C1c1ccc2c(c1)OCO2 (configuration not stated)
- EC50 [6]: > 300 µM (not active)
- EC50 [7]: > 300 µM (not active)
- IC50 [9]: > 47.1 µM (inactive)
- EC50 [10]: > 53 µM (inactive)

From ChEMBL document CHEMBL1201862, “PubChem BioAssay data set” (2004)
